Reference: patent publication US6086789A, “Medical uses of pyruvates” (Case Western Reserve University, priority 1998, dated 2000)

Legend:
myocardial infarct = assay: Decrease in myocardial infarct size in swine (LAD occlusion/reperfusion); format: in vivo
Method: Decrease in myocardial infarct size in swine by DPAG.
The animals were anesthetized, instrumented, and subjected to 60 minutes of total occlusion of the distal 2/3 of the left anterior descending coronary artery, followed by 120 min of reperfusion. The area of the infarct was stained with tetrazolium, and infarct size quantitated on 5 mm slices of tissue. Treatment with DPAG was started with the onset of reperfusion (8.0 mg/kgmin for 120 min).

[1] = Therapeutic pyruvate concentration in vivo, infusion of rats; set-up: species or system rat
Method: Therapeutic pyruvate concentration in vivo with DPAG
After preparing pure DPAG, experiments were performed to test whether it could be used to impose a therapeutic concentration of 1 mM pyruvate in arterial blood. Overnight-fasted rats, anesthetized with halothane, were infused in the jugular vein with DPAG at 90 μmol·min^-1 ·kg^-1 for 90 min. This rate corresponds to about 120% of the rats' caloric requirement. Five blood samples (70 μl) were taken from the carotid artery between 60 and 90 min. The arterial concentrations of pyruvate, lactate, and glycerol were clamped at 1.0, 2.5, and 0.8 mM, respectively. Corresponding portal vein concentrations at 90 min were 0.6, 2.5, and 1.0 mM, respectively. FIGS. 8 and 9 show blood concentrations of metabolites in rats infused with DPAG (panel A) and in control rats infused with saline (panel B). Control rats show normal arterial concentrations of pyruvate (0.05 mM) and lactate (0.3 to 0.6 mM; normal values for lactate are up to 1.5 mM). In rats infused with DPAG, the arterial concentrations of pyruvate and lactate were clamped at 1.0, and 2.5 mM, respectively. Corresponding portal vein concentrations at 90 min were 0.6 and 2.5 mM, respectively. Arterial glucose remained at 5-6 mM. […] Thus, DPAG can be safely used to set up the 1 mM target concentration of pyruvate expected to be beneficial for the treatment of reperfusion injury. […] Third, during peripheral administration of DPAG at 90 μmol·min^-1 ·kg^-1, portal pyruvate concentration was about 2/3 that which yielded a 3 to 6-fold increase in ethanol uptake by perfused rat livers. A portal pyruvate concentration of 1 mM could be achieved (i) by increasing the peripheral infusion of DPAG to 120 μmol·min^-1 ·kg^-1, or (ii) by administering DPAG enterally to better target portal vein concentrations.

perfused rat livers [2] = assay: Effect of DPAG on ethanol uptake by perfused rat livers; details: DPAG raised from zero to 0.5 mM, 2 mM ethanol, read-out: increase of ethanol uptake by the liver
Method: The effect of DPAG on the rate of ethanol uptake by perfused rat livers was also tested. Livers were perfused with non-recirculating buffer containing 4 mM glucose, 2 mM ethanol and variable concentrations of DPAG (0 to 1.5 mM). […] Note that 0.5 mM DPAG corresponds to 1 mM pyruvate after hydrolysis. Thus, to accelerate ethanol oxidation in vivo, the rate of DPAG administration should be adjusted to achieve a 1 mM concentration of free pyruvate in the portal vein. When DPAG was infused to live rats at 90 μmol·min^-1·kg^-1, the portal vein concentration of pyruvate was 0.6 mM. A portal pyruvate concentration of 1 mM could be achieved in vivo (i) by increasing the peripheral infusion of DPAG to 120 μmol·min·^-1 ·kg^-1, or (ii) by administering DPAG enterally to better target portal vein concentrations.

[3] = tested on: ketoacidotic diabetic rats; assay: Treatment of ketoacidotic diabetic BB rats; format: in vivo
Method: Prediabetic male BB rats were purchased from the University of Massachussetts Breeding Center. They were treated with insulin (PZI 40 U/mL, Anpro Pharmaceutical), mean of 2.1 U for rats weighing between 250-300 g) as soon as they became hyperglycemic. They were used after at least three weeks of clinical stability and steady weight growth. Under general anesthesia, permanent catheters were inserted in a carotid artery and the controlateral external jugular vein. Then, the rats were deprived of insulin for two days. […] The rats were then treated with one of four protocols: […]

ethanol oxidation = details: intragastric gavage, dogs; cited from earlier work
isolated rabbit hearts [4] = assay: Recovery of isolated rabbit hearts following 25 min of warm ischemia; set-up: species or system New Zealand rabbits; details: 20 μM PNACE
Method: In the working mode, which simulates physiological conditions, hearts pump the buffer against a 85 cm hydrostatic pressure in the aorta. The mechanical performance of the hearts was assessed by monitoring heart rate, cardiac output, coronary flow, left ventricular pressure, and dP/dtmax. The latter parameter reflects the capacity of the heart to increase hydrostatic pressure in the left ventricle. Following 30 minutes of equilibration, the hearts were made ischemic for 25 minutes by clamping the aortic and left atrial canulas. Then, the clamps were removed to allow reperfusion with oxygenated KRB buffer containing either no additive (n=7, control group), or 20 μM pyruvate-N-acetyl-cysteine ethyl ester ([…]=7). PNACE was infused via a syringe pump into the inflowing perfusate. In the syringe, PNACE was dissolved in 0.1 mM HCl to prevent hydrolysis of the thioester.

preserved rat livers = assay: Metabolic integrity of preserved rat livers upon reperfusion
Method: Improved function of preserved rat livers
The first group of livers (n=7, control group) was not preserved, but was perfused at 37° C. for 45 minutes. The second group of livers (n=8, preserved group) was flushed with ice-cold University of Wisconsin (UW) preservation solution and stored for 24 hours in ice-cold UW solution. Next, the livers were reperfused at 37° C. with non-recirculating KRB buffer containing 5 mM glucose. The third group of livers (n=8, preserved+PNACE group) was treated as the second group except that 20 μM PNACE was added to the UW preservation solution and to the reperfusion KRB buffer. During the last 45 min of (re)perfusion, the function of the three groups of livers was assessed by (i) the release of three cellular enzymes, i.e. lactate dehydrogenase, aspartate aminotransferase, and alanine aminotransferase, (ii) oxygen consumption, and (iii) the production of ketone bodies, ie β-hydroxybutyrate+acetoacetate, after addition of 1 mM octanoate to the perfusate.
Effect of PNACE on metabolic integrity of preserved rat livers upon reperfusion

[5] = Stability of PNACE in solution; format: physicochemical
From the text: However, the present inventive compound has proven to be readily manufacturable and very effective in the prevention of organ damage associated with reperfusion injury. The compound has been prepared in pure form and in gram amounts. Its formula has been confirmed by elemental analysis and gas chromatography-mass spectrometry. The compound is stable in slightly acidic solutions (pH 4-5). […] The compound has also been synthesized labeled with three deuterium ^2 H atoms on the N-acetyl moiety. This deuterated compound is used as an internal standard for the assay of the compound by isotope dilution gas chromatography-mass spectrometry.

reperfused rat hearts = details: cited from earlier work
isolated rabbit hearts [6] = assay: Recovery of isolated rabbit hearts following massive catecholamine injury; details: 50 μM isoproterenol, after 10 minutes
Method: Recovery of isolated rabbit hearts following massive catecholamine injury
Rabbit hearts were perfused in the working mode as in the above example. However, after the 30 minutes of equilibration, 50 μM isoproterenol was added to the inflowing perfusate for 10 min. Isoproterenol is a catecholamine, which, at the dose administered, induces a marked increase in heart rate and cardiac output. After 10 minutes, the mechanical performance of the hearts decreased markedly to the point where cardiac output was almost zero. Then, isoproterenol infusion was stopped, and perfusion was continued for 30 minutes with oxygenated KRB buffer containing either no additive (n=7, control group), or 20 μM PNACE (n=7).

perfused rat livers [7] = assay: Acceleration of ethanol oxidation by components of pyruvate esters in perfused rat livers; details: perfused liver
Method: Acceleration of ethanol oxidation
Rat livers were infused with ethanol and the components of the esters of glycerol-and-DHA pyruvate to represent the conditions that will occur after ester hydrolysis. […] After 10 min baseline, the influent perfusate was enriched with various equimolar concentrations of the components of the esters, ie DHA+Na-pyruvate, or glycerol+Na-pyruvate (up to 2.2 mM). These conditions simulated infusion and hydrolysis of glycerol- or DHA-monopyruvate. The uptakes of ethanol, pyruvate, DHA and glycerol, as well as the productions of lactate and glucose were measured.

[8] = Group III preserved + PNACE (20 μM), 25-30 min.
[9] = preserved reperfused rat livers, 20 μM PNACE

CC(=O)OCC(COC(=O)C(C)=O)OC(=O)C(C)=O (stereo not shown) [DPAG, dipyruvyl-acetyl-glycerol]
infarct size, percent of the area at risk for infarction (myocardial infarct; DPAG 8.0 mg/kgmin for 120 min from onset of reperfusion, n=6, p<0.0005 vs control 40.0±3.6%): 9.1±3.8%
effect on heart rate or ventricular pressure (myocardial infarct; DPAG infusion): did not affect heart rate or ventricular pressure
Arterial glucose ([1]; DPAG 90 μmol.min^-1.kg^-1): 5 to 6 mM
portal vein concentration of lactate ([1]; DPAG 90 μmol.min^-1.kg^-1, at 90 min): 2.5 mM
acid-base and electrolyte parameters of aortic blood ([1]; DPAG 90 μmol.min^-1.kg^-1, final samples): normal acid-base and electrolyte parameters
arterial concentration of lactate ([1]; DPAG 90 μmol.min^-1.kg^-1 jugular vein, 60-90 min): 2.5 mM
sodium overload and/or acid-base perturbations ([1]; DPAG at 1 mM arterial pyruvate): without sodium overload and/or acid-base perturbations
increases in glucose and lactate concentrations ([1]; DPAG at 120% of the caloric requirement): lack of major increases in glucose and lactate concentrations
fold induction at 500 µM (perfused rat livers [2]): 2.5
decrease of total KB concentration ([3]; DPAG 90 μmol.min^-1 kg^-1 in saline infusion, in 2 hr): 90%
tolerability of massive doses ([3]; compromised BB rats in diabetic ketoacidosis): well tolerated

O=C(O)O [NH4 HCO3]
rate of ethanol oxidation (ethanol oxidation): increases the rate of ethanol oxidation

CCOC(=O)[C@H](CSC(=O)C(C)=O)NC(C)=O [PNACE, Pyruvate-N-acetyl-L-cysteine ethyl ester]
duration of functional recovery (isolated rabbit hearts [4]): lasted throughout the 30 minute reperfusion experiment
Release of lactate dehydrogenase (preserved rat livers; Group III preserved + PNACE (20 μM), 10-14 min.): 4.5 U/L.g
Oxygen consumption (preserved rat livers; [8]): 2.4 µmol/min/g
Release of alanine aminotransferase (preserved rat livers; [8]): 0.33 U/L.g
Release of aspartate amino-transferase (preserved rat livers; [8]): 0.73 U/L.g
Ketone body production (preserved rat livers; Group III preserved + PNACE (20 μM), 25-30 min., 1 mM octanoate): 1.4 µmol/min/g
capacity of the liver to oxidize fatty acids to ketone bodies (preserved rat livers; [9]): restores partially the capacity of the liver to oxidize fatty acids to ketone bodies
initial release of tissue enzymes (preserved rat livers; [9]): markedly decreases the initial release of tissue enzymes
oxygen consumption (in words) (preserved rat livers; [9]): restores oxygen consumption to the level of non-preserved livers
stability in slightly acidic solutions ([5]; pH 4-5): stable
hydrolysis to pyruvate and N-acetylcysteine ethyl ester ([5]; pH 7.4): slowly hydrolyzed
infarct size, percent of the area at risk for infarction (myocardial infarct; PNACE group (n=4)): about 16±4%

CC(=O)N[C@@H](CS)C(=O)O [acetylcysteine]
production of ROS (reperfused rat hearts): decreases the production of ROS

CC(C)NCC(O)c1ccc(O)c(O)c1 (stereo not shown) [isoproterenol]
cardiac output after isoproterenol (isolated rabbit hearts [6]): almost zero

CC(=O)C(=O)O [pyruvate]
increase in ethanol uptake by perfused rat livers (perfused rat livers [7]): 3-6 fold

insulin
decrease of total KB concentration ([3]; 0.75 U insulin intravenously + saline, 2 hr): 30%
